Data as given in patent US20240081328A1, “Use of 4-Nitro-3-(Trifluoromethyl)Phenol in Killing or Controlling Pomacea Canaliculata, Method for Killing or Controlling Pomacea Canaliculata, and Molluscicide” (priority 2021, published 2024).
Where two headings read alike, the source gives them in different places.

Tested on: Pomacea canaliculata
Test: Immersion test of dilutions in beakers, mortality rate of Pomacea canaliculata
Format: in vivo
Details: for mortality at 0.0039 µg/mL / mortality at 0.0078 µg/mL / mortality at 0.0156 µg/mL / mortality at 0.0312 µg/mL / mortality at 0.0625 µg/mL / mortality at 0.125 µg/mL / mortality at 0.25 µg/mL / mortality at 0.5 µg/mL: Pomacea canaliculata, read-out: Mortality rate (%) of Pomacea canaliculata at different action time (h); for mortality at 0.0039 µg/mL: 0.0039 mg/L; for mortality at 0.0078 µg/mL: 0.0078 mg/L; for mortality at 0.0156 µg/mL: 0.0156 mg/L; for mortality at 0.0312 µg/mL: 0.0312 mg/L; for mortality at 0.0625 µg/mL: 0.0625 mg/L
Protocol: 0.5 mg of 4-nitro-3-(trifluoromethyl)phenol and 0.5 mg of niclosamide were completely dissolved in 1 mL of a dimethyl sulfoxide (DMSO) solution separately, and diluted to 1,000 mL with deaminized water to obtain a 4-nitro-3-(trifluoromethyl)phenol solution with a concentration of 0.5 mg/L and a niclosamide solution with a concentration of 0.5 mg/L.
The two solutions were separately diluted into 7 concentrations of dilutions using a doubling dilution method, including 0.25 mg/L, 0.125 mg/L, 0.0625 mg/L, 0.0312 mg/L, 0.0156 mg/L, and 0.0078 mg/L, and 0.0039 mg/L.
400 mL of the dilutions with different concentrations were separately poured into a 500 mL beaker, 10 Pomacea canaliculata samples were put into the dilution of each concentration, and each bottle mouth was sealed with wire mesh to completely immerse the Pomacea canaliculata in the dilution; clear water was used as a control group.
The experimental data were used to calculate the mortality rate of each treatment according to the following formula. Each calculation result was rounded to two decimal places. A formula for calculating the mortality rate was: […]
In the formula: P represented the mortality rate, in percentage (%); Σ^Ki represented • the number of dead Pomacea canaliculata, in snails; Σ^Ni represented the total number of treated Pomacea canaliculata, in snails.

Structure (SMILES): O=C(Nc1ccc([N+](=O)[O-])cc1Cl)c1cc(Cl)ccc1O [niclosamide]
- killing of Pomacea canaliculata (in words) (0.125 mg/L, within 24 h): all Pomacea canaliculata died
- killing of Pomacea canaliculata (in words) (0.25 mg/L, action time 12 h): all Pomacea canaliculata died
- killing of Pomacea canaliculata (in words) (0.5 mg/L, action time 12 h): all Pomacea canaliculata died
- mortality at 0.0039 µg/mL (action time 0 h): 0%
- mortality at 0.0039 µg/mL (action time 12 h): 0%
- mortality at 0.0039 µg/mL (action time 24 h): 20%
- mortality at 0.0039 µg/mL (action time 36 h): 30%
- mortality at 0.0039 µg/mL (action time 48 h): 30%
- mortality at 0.0039 µg/mL (action time 60 h): 30%
- mortality at 0.0039 µg/mL (action time 72 h): 40%
- mortality at 0.0078 µg/mL (action time 0 h): 0%
- mortality at 0.0078 µg/mL (action time 12 h): 10%
- mortality at 0.0078 µg/mL (action time 24 h): 40%
- mortality at 0.0078 µg/mL (action time 36 h): 40%
- mortality at 0.0078 µg/mL (action time 48 h): 40%
- mortality at 0.0078 µg/mL (action time 60 h): 40%
- mortality at 0.0078 µg/mL (action time 72 h): 70%
- mortality at 0.0156 µg/mL (action time 0 h): 0%
- mortality at 0.0156 µg/mL (action time 12 h): 10%
- mortality at 0.0156 µg/mL (action time 24 h): 30%
- mortality at 0.0156 µg/mL (action time 36 h): 60%
- mortality at 0.0156 µg/mL (action time 48 h): 70%
- mortality at 0.0156 µg/mL (action time 60 h): 70%
- mortality at 0.0156 µg/mL (action time 72 h): 70%
- mortality at 0.0312 µg/mL (action time 0 h): 0%
- mortality at 0.0312 µg/mL (action time 12 h): 10%
- mortality at 0.0312 µg/mL (action time 24 h): 50%
- mortality at 0.0312 µg/mL (action time 36 h): 70%
- mortality at 0.0312 µg/mL (action time 48 h): 80%
- mortality at 0.0312 µg/mL (action time 60 h): 80%
- mortality at 0.0312 µg/mL (action time 72 h): 80%
- mortality at 0.0625 µg/mL (action time 0 h): 0%
- mortality at 0.0625 µg/mL (action time 12 h): 30%
- mortality at 0.0625 µg/mL (action time 24 h): 50%
- mortality at 0.0625 µg/mL (action time 36 h): 80%
- mortality at 0.0625 µg/mL (action time 48 h): 80%
- mortality at 0.0625 µg/mL (action time 60 h): 100%
- mortality at 0.0625 µg/mL (action time 72 h): 100%
- mortality at 0.125 µg/mL (0.125 mg/L, action time 0 h): 0%
- mortality at 0.125 µg/mL (0.125 mg/L, action time 12 h): 90%
- mortality at 0.125 µg/mL (0.125 mg/L, action time 24 h): 100%
- mortality at 0.125 µg/mL (0.125 mg/L, action time 36 h): 100%
- mortality at 0.125 µg/mL (0.125 mg/L, action time 48 h): 100%
- mortality at 0.125 µg/mL (0.125 mg/L, action time 60 h): 100%
- mortality at 0.125 µg/mL (0.125 mg/L, action time 72 h): 100%
- mortality at 0.25 µg/mL (0.25 mg/L, action time 0 h): 0%
- mortality at 0.25 µg/mL (0.25 mg/L, action time 12 h): 100%
- mortality at 0.25 µg/mL (0.25 mg/L, action time 24 h): 100%
- mortality at 0.25 µg/mL (0.25 mg/L, action time 36 h): 100%
- mortality at 0.25 µg/mL (0.25 mg/L, action time 48 h): 100%
- mortality at 0.25 µg/mL (0.25 mg/L, action time 60 h): 100%
- mortality at 0.25 µg/mL (0.25 mg/L, action time 72 h): 100%
- mortality at 0.5 µg/mL (0.5 mg/L, action time 0 h): 0%
- mortality at 0.5 µg/mL (0.5 mg/L, action time 12 h): 100%
- mortality at 0.5 µg/mL (0.5 mg/L, action time 24 h): 100%
- mortality at 0.5 µg/mL (0.5 mg/L, action time 36 h): 100%
- mortality at 0.5 µg/mL (0.5 mg/L, action time 48 h): 100%
- mortality at 0.5 µg/mL (0.5 mg/L, action time 60 h): 100%
- mortality at 0.5 µg/mL (0.5 mg/L, action time 72 h): 100%
- mortality rate of Pomacea canaliculata within 72 h (concentration of below 0.0312 mg/L, within 72 h): < 100%
